Read-outs that look alike come from different tables or passages of the source.
Experiments:
IKZF1 = molecular target: T1, IKZF1 (Homo sapiens, UniProt Q13422+Q96SW2); test: HiBiT degradation assay, NCIH929.11 (HiBiT-IKZF1) cells; format: cell-based; settings: for DC50: NCHI929.11 cells, 6 hours; for Emax: read-out: HiBiT-Degradation NCHI929.11 IKZF1 6 hours Emax, NCHI929.11 cells
T1 construct: endogenously expressing IKZF1 with HiBiT fusion tag via CRISPR; endogenous in cells; host or cells: NCIH929.11 (CRISPR knock-in)
Method: RPMI no-phenol red medium and fetal bovine serum (FBS) were purchased from Gibco (Grand Island, NY, USA). Nano-Glo® HiBiT Lytic Assay System was purchased from Promega (Madison, WI, USA). NCIH929.11 (HiBiT-IKZF1) cell line was generated in house, endogenously expressing IKZF1 with HiBiT fusion tag via CRISPR. Cell culture flasks and 384-well microplates were acquired from VWR (Radnor, PA, USA).
IKZF 1 degradation was determined based on quantification of luminescent signal using Nano-Glo® HiBiT Lytic Assay kit. Test compounds were added to the 384-well plate from a top concentration of 10 μM with 11 points, half-log titration in duplicates. NCIH929.11 cells expressing HiBiT-tagged TKZF1 were added into 384-well plates in RPMI medium containing 10% FBS and 0.05 mM 2-mercaptoethanol at a cell density of 15000 cells per well. The plates were kept at 37° C. with […] for 6 hours. Cells treated in the absence of the test compound were the negative control and wells containing media only were the positive control. After 6-hour incubation, Nano-Glo® HiBiT Lytic Assay reagents were added to the designated wells. Luminescence was acquired on EnVision™ Multilabel Reader (PerkinElmer, Santa Clara, CA, USA).

SALL4 = SALL4 (Homo sapiens, UniProt Q96SW2+Q9UJQ4); test: HiBiT degradation assay, KELLY.2 (SALL4-HiBiT) cells; format: cell-based; settings: for DC50: KELLY.2 cells, 6 hours; for Emax: read-out: HiBiT-Degradation KELLY.2 SALL4 6 hours Emax, KELLY.2 cells
Method: RPMI 1640 Medium without phenol red, fetal bovine serum (FBS), and Sodium Pyruvate (100 mM) were purchased from Gibco (Grand Island, NY, USA). Nano-Glo® HiBiT Lytic Assay System was purchased from Promega (Madison, WI, USA). […] Cell culture flasks and 384-well microplates were acquired from VWR (Radnor, PA, USA).
(§1) SALL4 degradation was determined based on quantification of luminescent signal using Nano-Glo® HiBiT Lytic Assay kit. Test compounds were added to the 384-well plate from a top concentration of 10 μM with 11 points, half log titration in duplicates. KELLY.2 cells were added into 384-well plates at a cell density of 6000 cells per well. The plates were kept at 37° C. with 5% CO2 for 6 hours. The cells treated in the absence of the test compound were the negative control and the cells without Nano-Glo® HiBiT Lytic reagent were the positive control. After 6-hour incubation, Nano-Glo® HiBiT Lytic Assay reagents were added to the cells. Luminescence was acquired on EnVision™ Multilabel Reader (PerkinElmer, Santa Clara, CA, USA).

GSPT1 = GSPT1 (Homo sapiens, UniProt P15170+Q96SW2); test: HiBiT degradation assay, 293T.114 cells, GSPT1; format: cell-based; settings: for DC50: read-out: HiBiT-Degradation 293T.114 GSPT1 6 hours DC50
Method: as §1, with “GSPT1” for “SALL4”, “5” for “11”, “3-fold” for “half log”, “quadruplicates. 293T.114” for “duplicates. KELLY.2”, “The plates were kept at 37° C. with 5% CO2 for 6 hours.” left out, “After 6-hour incubation, Nano-Glo® HiBiT Lytic Assay reagents were added to the cells.” left out

CRBN = molecular target: T2, CRBN (Homo sapiens, UniProt Q96SW2); test: NanoBRET CRBN binding, 293T.116 cells; settings: 2 hours
T2 construct: expressed in transfected cells; host or cells: 293T (line named 293T.116)

[1] = read-out: GSPT1 Emax @ 10 μM 24 Hours, 24 hours
[2] = read-out: HiBiT-Degradation 293T.114 GSPT1 6 hours Emax, 293T.114 cells, 6 hours

T1 sequence (Q13422 whole entry, the tested form may be a part): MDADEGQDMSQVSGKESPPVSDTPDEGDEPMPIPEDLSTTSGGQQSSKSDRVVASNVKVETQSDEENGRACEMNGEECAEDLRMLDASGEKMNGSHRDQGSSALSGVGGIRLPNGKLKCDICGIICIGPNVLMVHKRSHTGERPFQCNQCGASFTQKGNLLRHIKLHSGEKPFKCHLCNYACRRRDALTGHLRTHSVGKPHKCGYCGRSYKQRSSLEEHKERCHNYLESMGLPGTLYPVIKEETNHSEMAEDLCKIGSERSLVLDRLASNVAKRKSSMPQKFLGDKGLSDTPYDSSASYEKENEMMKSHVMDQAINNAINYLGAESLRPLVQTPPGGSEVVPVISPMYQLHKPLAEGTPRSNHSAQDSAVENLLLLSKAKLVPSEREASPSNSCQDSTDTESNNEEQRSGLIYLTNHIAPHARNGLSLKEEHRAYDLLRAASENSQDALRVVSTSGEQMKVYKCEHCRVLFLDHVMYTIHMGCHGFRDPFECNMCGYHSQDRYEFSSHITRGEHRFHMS
T1 sequence (Q96SW2 whole entry, the tested form may be a part): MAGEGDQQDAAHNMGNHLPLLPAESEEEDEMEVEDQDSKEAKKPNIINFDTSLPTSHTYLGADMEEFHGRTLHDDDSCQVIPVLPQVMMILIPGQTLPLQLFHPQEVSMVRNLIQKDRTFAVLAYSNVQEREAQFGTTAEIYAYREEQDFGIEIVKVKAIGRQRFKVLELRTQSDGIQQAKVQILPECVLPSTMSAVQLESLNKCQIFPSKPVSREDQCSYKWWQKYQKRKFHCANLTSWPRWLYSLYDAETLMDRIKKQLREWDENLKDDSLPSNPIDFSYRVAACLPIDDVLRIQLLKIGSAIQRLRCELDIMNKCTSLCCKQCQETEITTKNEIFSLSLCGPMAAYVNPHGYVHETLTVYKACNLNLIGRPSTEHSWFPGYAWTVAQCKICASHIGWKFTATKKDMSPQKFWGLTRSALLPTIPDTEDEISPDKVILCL
T1 sequence (Q16531 2-1140 partner limits assumed): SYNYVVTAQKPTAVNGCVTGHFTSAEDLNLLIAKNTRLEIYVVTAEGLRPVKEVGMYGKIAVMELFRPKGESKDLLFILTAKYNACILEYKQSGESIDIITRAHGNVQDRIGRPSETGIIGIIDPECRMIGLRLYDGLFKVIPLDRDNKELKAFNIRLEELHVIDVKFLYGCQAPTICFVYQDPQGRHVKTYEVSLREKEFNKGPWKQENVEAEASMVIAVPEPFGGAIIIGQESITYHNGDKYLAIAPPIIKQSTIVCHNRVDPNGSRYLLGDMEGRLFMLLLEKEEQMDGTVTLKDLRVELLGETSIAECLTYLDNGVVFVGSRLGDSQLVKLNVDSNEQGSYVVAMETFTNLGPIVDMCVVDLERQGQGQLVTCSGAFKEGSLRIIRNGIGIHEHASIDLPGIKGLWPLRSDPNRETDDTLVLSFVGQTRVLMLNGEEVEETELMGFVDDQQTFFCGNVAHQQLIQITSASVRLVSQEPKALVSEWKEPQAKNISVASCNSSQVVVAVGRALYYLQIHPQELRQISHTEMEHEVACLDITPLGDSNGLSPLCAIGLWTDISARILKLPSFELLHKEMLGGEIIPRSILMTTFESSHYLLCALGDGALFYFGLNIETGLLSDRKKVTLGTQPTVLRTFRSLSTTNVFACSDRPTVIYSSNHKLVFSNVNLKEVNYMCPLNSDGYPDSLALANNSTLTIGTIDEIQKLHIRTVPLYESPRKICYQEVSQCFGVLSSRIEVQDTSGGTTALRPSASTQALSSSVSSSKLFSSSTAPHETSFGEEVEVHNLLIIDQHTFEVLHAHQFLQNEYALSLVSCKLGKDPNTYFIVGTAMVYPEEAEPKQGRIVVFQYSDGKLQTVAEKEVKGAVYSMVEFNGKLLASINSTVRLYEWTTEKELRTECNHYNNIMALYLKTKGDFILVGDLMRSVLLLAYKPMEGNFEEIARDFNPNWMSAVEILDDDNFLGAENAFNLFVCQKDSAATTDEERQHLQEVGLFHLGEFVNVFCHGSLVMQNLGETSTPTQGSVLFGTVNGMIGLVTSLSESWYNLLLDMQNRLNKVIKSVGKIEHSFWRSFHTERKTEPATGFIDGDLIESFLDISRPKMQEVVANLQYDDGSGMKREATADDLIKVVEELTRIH
GSPT1, sequence (P15170 whole entry): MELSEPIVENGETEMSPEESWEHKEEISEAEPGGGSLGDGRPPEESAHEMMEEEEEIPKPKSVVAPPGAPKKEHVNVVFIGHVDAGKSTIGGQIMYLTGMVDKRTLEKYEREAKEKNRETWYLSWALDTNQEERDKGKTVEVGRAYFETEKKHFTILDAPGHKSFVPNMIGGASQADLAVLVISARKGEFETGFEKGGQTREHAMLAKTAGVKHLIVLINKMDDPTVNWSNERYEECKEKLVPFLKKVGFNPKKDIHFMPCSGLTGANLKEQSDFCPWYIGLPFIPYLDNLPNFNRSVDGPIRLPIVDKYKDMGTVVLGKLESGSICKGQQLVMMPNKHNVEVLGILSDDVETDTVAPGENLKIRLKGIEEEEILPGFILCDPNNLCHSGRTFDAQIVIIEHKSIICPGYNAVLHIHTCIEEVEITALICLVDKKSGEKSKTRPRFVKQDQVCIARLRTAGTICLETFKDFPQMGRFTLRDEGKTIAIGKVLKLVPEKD
GSPT1, sequence (Q96SW2 whole entry): as the sequence (Q96SW2 whole entry, the tested form may be a part) above
GSPT1, sequence (Q16531 2-1140 partner limits assumed): as the sequence (Q16531 2-1140 partner limits assumed) above
T2 sequence (Q96SW2 whole entry): as the sequence (Q96SW2 whole entry, the tested form may be a part) above
T2 sequence (Q16531 2-1140 partner limits assumed): as the sequence (Q16531 2-1140 partner limits assumed) above
SALL4, sequence (Q9UJQ4 whole entry): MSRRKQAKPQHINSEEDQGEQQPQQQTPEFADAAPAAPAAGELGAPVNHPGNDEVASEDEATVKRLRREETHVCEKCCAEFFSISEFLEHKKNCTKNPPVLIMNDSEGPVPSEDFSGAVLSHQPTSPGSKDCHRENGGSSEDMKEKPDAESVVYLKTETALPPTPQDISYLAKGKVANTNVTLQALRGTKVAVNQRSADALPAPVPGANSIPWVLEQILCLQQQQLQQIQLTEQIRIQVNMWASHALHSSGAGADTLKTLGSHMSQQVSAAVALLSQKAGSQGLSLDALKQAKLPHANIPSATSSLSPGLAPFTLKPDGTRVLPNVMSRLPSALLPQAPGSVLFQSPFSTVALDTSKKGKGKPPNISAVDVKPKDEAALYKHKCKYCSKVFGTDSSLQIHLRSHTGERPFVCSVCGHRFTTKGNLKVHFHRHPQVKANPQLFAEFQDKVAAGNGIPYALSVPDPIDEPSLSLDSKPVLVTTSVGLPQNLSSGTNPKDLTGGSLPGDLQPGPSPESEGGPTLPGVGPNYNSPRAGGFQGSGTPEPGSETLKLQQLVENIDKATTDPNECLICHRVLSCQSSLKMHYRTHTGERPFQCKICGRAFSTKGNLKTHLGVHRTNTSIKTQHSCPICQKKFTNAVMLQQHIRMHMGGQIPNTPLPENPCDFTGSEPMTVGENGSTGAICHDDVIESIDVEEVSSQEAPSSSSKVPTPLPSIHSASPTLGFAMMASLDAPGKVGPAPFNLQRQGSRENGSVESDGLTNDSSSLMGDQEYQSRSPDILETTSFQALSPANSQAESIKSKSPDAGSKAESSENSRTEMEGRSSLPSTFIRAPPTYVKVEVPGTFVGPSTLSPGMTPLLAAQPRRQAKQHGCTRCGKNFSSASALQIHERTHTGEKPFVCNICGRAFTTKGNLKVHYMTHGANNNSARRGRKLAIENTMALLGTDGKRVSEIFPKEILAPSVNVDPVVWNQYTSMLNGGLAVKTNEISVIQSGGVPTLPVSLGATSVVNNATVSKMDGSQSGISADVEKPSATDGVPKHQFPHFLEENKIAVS
SALL4, sequence (Q96SW2 whole entry): as the sequence (Q96SW2 whole entry, the tested form may be a part) above
SALL4, sequence (Q16531 2-1140 partner limits assumed): as the sequence (Q16531 2-1140 partner limits assumed) above

SMILES | DC50 (IKZF1) | Emax (IKZF1) | DC50 (SALL4) | Emax (SALL4) | DC50 (GSPT1; 293T.114 cells, 6 hours) | Emax (GSPT1; [1]) | Emax (GSPT1; [2]) | IC50 (CRBN)
CCOc1ccc(Cc2ccc3c4c(cccc24)N(C2CCC(=O)NC2=O)C3=O)c(F)c1 (stereo not shown) [Compound 60, 3-(5-(4-ethoxy-2-fluorobenzyl)-2-oxobenzo[cd]indol-1(2H)-yl)piperidine-2,6-dione] | > 10000 nM | 60 to 95% | > 10000 nM | 60 to 95% | > 10000 nM | < 45% | 60 to 95% | < 100 nM
CCOC(=O)c1ccc(Cc2ccc3c4c(cccc24)N(C2CCC(=O)NC2=O)C3=O)cc1 (stereo not shown) [Compound 61, ethyl 4-((1-(2,6-dioxopiperidin-3-yl)-2-oxo-1,2-dihydrobenzo[cd]indol-5-yl)methyl)benzoate] | 100 to 1000 nM | < 45% | 100 to 1000 nM | < 45% | > 10000 nM | < 45% | 45 to 60% | < 100 nM
CCOC(=O)c1cccc(Cc2ccc3c4c(cccc24)N(C2CCC(=O)NC2=O)C3=O)c1 (stereo not shown) [Compound 62, ethyl 3-((1-(2,6-dioxopiperidin-3-yl)-2-oxo-1,2-dihydrobenzo[cd]indol-5-yl)methyl)benzoate] | > 10000 nM | 60 to 95% | > 10000 nM | 60 to 95% | > 10000 nM | < 45% | 60 to 95% | < 100 nM
O=C1CCC(N2C(=O)c3ccc(CN4CC(Oc5ccccc5)C4)c4cccc2c34)C(=O)N1 (stereo not shown) [Compound 63, 3-(2-oxo-5-((3-phenoxyazetidin-1-yl)methyl)benzo[cd]indol-1(2H)-yl)piperidine-2,6-dione] | – | – | – | – | – | < 45% | – | –
O=C1CCC(N2C(=O)c3ccc(CNC(=O)C(F)(F)c4ccc(Cl)cc4)c4cccc2c34)C(=O)N1 (stereo not shown) [Compound 64, 2-(4-chlorophenyl)-N-[[1-(2,6-dioxo-3-piperidyl)-2-oxo-benzo[cd]indol-5-yl]methyl]-2,2-difluoro-acetamide] | > 10000 nM | 45 to 60% | < 100 nM | < 45% | > 10000 nM | < 45% | 45 to 60% | < 100 nM
O=C1CCC(N2C(=O)c3ccc(C4(F)CCN(Cc5ccccc5)CC4)c4nccc2c34)C(=O)N1 (stereo not shown) [Compound 81, 3-[18-(1-benzyl-4-fluoro-4-piperidyl)-24-oxo-27,30-diazatricyclododeca-5(17),6(18),7(19),8(27),20-pentaen-30-yl]piperidine-2,6-dione] | – | – | < 100 nM | < 45% | > 100 nM | – | 60 to 95% | –
Cc1cc(C)nc(-c2ccc3c4c(cccc24)N(C2CCC(=O)NC2=O)C3=O)n1 (stereo not shown) [Compound 87, 3-[5-(4,6-dimethylpyrimidin-2-yl)-2-oxo-benzo[cd]indol-1-yl]piperidine-2,6-dione] | – | – | < 100 nM | < 45% | > 100 nM | – | 60 to 95% | –
CN1CC(c2ccc3c4c(cccc24)N(C2CCC(=O)NC2=O)C3=O)C1 (stereo not shown) [Compound 90, 3-[5-(1-methylazetidin-3-yl)-2-oxo-benzo[cd]indol-1-yl]piperidine-2,6-dione] | – | – | < 100 nM | < 45% | > 100 nM | – | 60 to 95% | –
O=C1CCC(N2C(=O)c3cc(CNCc4ccco4)cc4cccc2c34)C(=O)N1 (stereo not shown) [Compound 160] | – | – | – | – | > 10000 nM | – | 45 to 60% | –
Cc1ccc(CN2CCC(c3ccc4c5c(cccc35)N(C3CCC(=O)NC3=O)C4=O)CC2)cc1F (stereo not shown) [Compound 176] | – | – | > 10000 nM | 60 to 95% | > 10000 nM | – | 60 to 95% | < 100 nM
COc1ncc(CN2CCC(c3ccc4c5c(cccc35)N(C3CCC(=O)NC3=O)C4=O)CC2)cn1 (stereo not shown) [Compound 177] | – | – | > 10000 nM | 60 to 95% | > 10000 nM | – | 60 to 95% | < 100 nM
CC(NC(=O)c1ccc2c3c(ccnc13)N(C1CCC(=O)NC1=O)C2=O)c1ccccc1 (stereo not shown) [Compound 185, 27-(2,6-dioxo-3-piperidyl)-20-oxo-N-(1-phenylethyl)-24,27-diazatricyclododeca-6,8(15),9(24),13(16),14(17)-pentaene-14-carboxamide] | – | – | < 100 nM | < 45% | > 100 nM | – | 60 to 95% | –
COC(=O)c1ccc(Nc2ccc3cccc4c3c2C(=O)N4C2CCC(=O)NC2=O)cc1 (stereo not shown) [Compound 186, Methyl 4-[[1-(2,6-dioxo-3-piperidyl)-2-oxo-benzo[cd]indol-3-yl]amino]benzoate] | > 10000 nM | 60 to 95% | > 10000 nM | 60 to 95% | > 10000 nM | – | 60 to 95% | –
CC(C)(C)OC(=O)N1CCC(n2cc(Cc3ccc4c5c(cccc35)C(=O)N4[C@H]3CCC(=O)NC3=O)cn2)CC1 [Compound 197, tert-butyl 4-[4-[[1-[(3S)-2,6-dioxo-3-piperidyl]-2-oxo-benzo[cd]indol-6-yl]methyl]pyrazol-1-yl]piperidine-1-carboxylate] | < 100 nM | < 45% | < 100 nM | < 45% | > 10000 nM | – | 60 to 95% | –
N#CC1(C(=O)N2CCC(n3cc(Cc4ccc5c6c(cccc46)C(=O)N5C4CCC(=O)NC4=O)cn3)CC2)CCC1 (stereo not shown) [Compound 200, 1-[4-[4-[[1-(2,6-dioxo-3-piperidyl)-2-oxo-benzo[cd]indol-6-yl]methyl]pyrazol-1-yl]piperidine-1-carbonyl]cyclobutanecarbonitrile] | – | – | < 100 nM | < 45% | > 10000 nM | – | > 95% | –
O=C1CCC(N2C(=O)c3cccc4c(Cc5cnn(C6CCN(C(=O)C7(C(F)(F)F)CCC7)CC6)c5)ccc2c34)C(=O)N1 (stereo not shown) [Compound 201] | – | – | < 100 nM | < 45% | > 10000 nM | – | > 95% | < 100 nM
CC1(n2cc(Cc3ccc4c5c(cccc35)C(=O)N4C3CCC(=O)NC3=O)cn2)CCN(C(=O)C2(C(F)(F)F)CC2)CC1 (stereo not shown) [Compound 203] | – | – | < 100 nM | < 45% | > 10000 nM | – | 60 to 95% | < 100 nM
CC1(n2cc(Cc3ccc4c5c(cccc35)C(=O)N4C3CCC(=O)NC3=O)cn2)CCN(C(=O)C2(C#N)CCCCC2)CC1 (stereo not shown) [Compound 204] | – | – | < 100 nM | < 45% | > 10000 nM | – | 60 to 95% | < 100 nM
CC1(n2cc(Cc3ccc4c5c(cccc35)C(=O)N4C3CCC(=O)NC3=O)cn2)CCN(C(=O)C2CC2)CC1 (stereo not shown) [Compound 205] | – | – | < 100 nM | < 45% | > 10000 nM | – | 60 to 95% | < 100 nM
CC1(n2cc(Cc3ccc4c5c(cccc35)C(=O)N4C3CCC(=O)NC3=O)cn2)CCN(c2ncccc2F)CC1 (stereo not shown) [Compound 208, 3-[6-[[1-[1-(3-fluoro-2-pyridyl)-4-methyl-4-piperidyl]pyrazol-4-yl]methyl]-2-oxo-benzo[cd]indol-1-yl]piperidine-2,6-dione] | – | – | < 100 nM | < 45% | > 10000 nM | – | 60 to 95% | –
O=C1CCC(N2C(=O)c3ccc(N4CCc5ccccc54)c4cccc2c34)C(=O)N1 (stereo not shown) [Compound 209, 3-(5-indolin-1-yl-2-oxo-benzo[cd]indol-1-yl)piperidine-2,6-dione] | > 10000 nM | 60 to 95% | < 100 nM | < 45% | > 10000 nM | – | 60 to 95% | –
CN(c1ccc2c3c(cccc13)N(C1CCC(=O)NC1=O)C2=O)C1CCN(Cc2ccccc2)C1 (stereo not shown) [Compound 220] | – | – | – | – | > 100 nM | – | 60 to 95% | –
